Assays:
[1] = biological target: T1, 5-hydroxytryptamine receptor 4 (Cavia porcellus, UniProt O70528); test: 5-hydroxytryptamine 4 receptor agonist activity as increased response to electrical stimulation in guinea pig ileum; assay type: functional, tissue-based
[2] = biological target: T2, Serotonin 3 (5-HT3) receptor (Rattus norvegicus, UniProt P35563+Q9JJ16); test: Binding affinity against 5-hydroxytryptamine 3 receptor using [3H]BRL-43694 in rat posterior cortex; assay type: tissue-based
T2 sequence (P35563 whole entry): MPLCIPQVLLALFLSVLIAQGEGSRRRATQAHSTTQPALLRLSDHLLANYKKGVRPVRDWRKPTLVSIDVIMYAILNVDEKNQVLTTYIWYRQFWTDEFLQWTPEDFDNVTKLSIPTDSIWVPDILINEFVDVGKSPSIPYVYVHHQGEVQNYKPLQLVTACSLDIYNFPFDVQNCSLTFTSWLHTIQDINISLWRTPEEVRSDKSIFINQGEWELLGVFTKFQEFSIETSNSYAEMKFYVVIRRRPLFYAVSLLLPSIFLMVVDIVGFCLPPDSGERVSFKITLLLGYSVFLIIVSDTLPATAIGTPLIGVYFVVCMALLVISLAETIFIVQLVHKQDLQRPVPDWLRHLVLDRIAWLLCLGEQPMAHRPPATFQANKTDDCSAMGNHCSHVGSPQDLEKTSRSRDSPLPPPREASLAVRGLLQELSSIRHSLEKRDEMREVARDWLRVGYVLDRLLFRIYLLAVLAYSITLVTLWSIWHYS
T2 sequence (Q9JJ16 whole entry): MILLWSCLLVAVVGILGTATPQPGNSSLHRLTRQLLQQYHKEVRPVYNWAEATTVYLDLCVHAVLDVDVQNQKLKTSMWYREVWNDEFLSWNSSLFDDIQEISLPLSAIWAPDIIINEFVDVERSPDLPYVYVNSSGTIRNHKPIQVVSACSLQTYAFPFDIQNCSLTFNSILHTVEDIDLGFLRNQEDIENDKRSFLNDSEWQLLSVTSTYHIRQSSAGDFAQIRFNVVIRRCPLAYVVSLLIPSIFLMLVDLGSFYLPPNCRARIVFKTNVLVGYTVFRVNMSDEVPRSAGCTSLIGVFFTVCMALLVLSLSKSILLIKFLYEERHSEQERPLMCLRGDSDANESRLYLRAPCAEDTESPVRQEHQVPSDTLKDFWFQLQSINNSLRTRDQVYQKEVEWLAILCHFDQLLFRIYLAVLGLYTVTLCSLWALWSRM

[3] = biological target: T3, 5-hydroxytryptamine receptor 4 (Rattus norvegicus, UniProt Q62758); test: Binding affinity against 5-hydroxytryptamine 4 receptor using [3H]GR-113808 as radioligand in rat striatum; assay type: tissue-based
[4] = biological target: T1, 5-hydroxytryptamine receptor 4; test: 5-hydroxytryptamine 4 receptor antagonist activity expressed as the concentration which produced a 50% reduction of 5-HT induced contraction in guinea pig ileum; assay type: functional, tissue-based
[5] = biological target: 5-hydroxytryptamine receptor 4 (Cavia porcellus) (UniProt O70528); test: 5-hydroxytryptamine 4 receptor agonist activity as percent maximum 5-HT effect in response to electrical stimulation in male guinea pig ileum; assay type: functional, tissue-based
[6] = biological target: T3, 5-hydroxytryptamine receptor 4; test: 5-hydroxytryptamine 4 receptor agonist activity was determined by the relaxation of the carbachol-contracted rat esophageal tunica muscularis mucosae; assay type: functional
[7] = biological target: T1, 5-hydroxytryptamine receptor 4; test: 5-hydroxytryptamine 4 receptor antagonist activity expressed as the concentration which produced a 50% reduction of 5-HT induced contraction in guinea pig ileum; Not evaluable; assay type: functional, tissue-based

T3 sequence (Q62758 whole entry): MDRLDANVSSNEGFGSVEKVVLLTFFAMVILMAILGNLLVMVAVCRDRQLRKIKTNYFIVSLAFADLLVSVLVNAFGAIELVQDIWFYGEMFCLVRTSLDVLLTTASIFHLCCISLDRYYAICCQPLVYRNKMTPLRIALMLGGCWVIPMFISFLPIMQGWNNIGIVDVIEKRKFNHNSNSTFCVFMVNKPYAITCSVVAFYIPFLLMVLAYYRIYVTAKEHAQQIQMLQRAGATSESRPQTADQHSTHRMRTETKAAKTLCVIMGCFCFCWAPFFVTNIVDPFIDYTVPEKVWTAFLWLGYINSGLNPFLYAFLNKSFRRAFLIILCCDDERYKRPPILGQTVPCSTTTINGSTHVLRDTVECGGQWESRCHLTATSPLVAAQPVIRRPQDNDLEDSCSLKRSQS
5-hydroxytryptamine receptor 4 (Cavia porcellus), sequence (O70528 whole entry): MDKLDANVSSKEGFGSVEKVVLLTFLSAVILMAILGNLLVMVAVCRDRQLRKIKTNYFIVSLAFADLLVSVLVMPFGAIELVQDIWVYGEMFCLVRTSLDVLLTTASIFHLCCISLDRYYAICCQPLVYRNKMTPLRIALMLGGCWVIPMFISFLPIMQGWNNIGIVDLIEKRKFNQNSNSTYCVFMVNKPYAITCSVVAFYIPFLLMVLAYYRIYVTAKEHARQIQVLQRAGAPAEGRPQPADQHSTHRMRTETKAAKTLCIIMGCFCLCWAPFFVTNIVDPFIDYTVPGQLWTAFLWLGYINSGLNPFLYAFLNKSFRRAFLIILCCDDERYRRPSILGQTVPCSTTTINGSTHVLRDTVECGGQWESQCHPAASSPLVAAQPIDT
T1 sequence (O70528 whole entry): as above

| SMILES | EC50 [1] | Ki [2] | Ki [3] | IC50 [4] | Activity [5] | IC50 [6] | IC50 [7] |
| --- | --- | --- | --- | --- | --- | --- | --- |
| COc1cc(N)c(Cl)cc1C(=O)OC1CCN(C)CC1 | 110 nM | 72 nM | 23 nM | 60 nM | 53% | – | – |
| NCCc1c[nH]c2ccc(O)cc12 | – | – | – | – | 100% | – | – |
| COc1cc(N)c(Cl)cc1C(=O)OCCN1CCCCC1 | – | 782 nM | 1.07 nM | – | 80% | 2.4 nM | – |
| COc1cc(N)c(Cl)cc1C(=O)NC1CN2CCC1CC2 (centres undefined) [ZACOPRIDE] | 260 nM | 0.7 nM | 753 nM | – | – | – | – |
| CCN(CC)CCOC(=O)c1cc(Cl)c(N)cc1OC | > 1000 nM | 205 nM | 5.3 nM | – | – | – | 77 nM |
| COc1cc(N)c(Cl)cc1C(=O)OC1CC2CCC(C1)N2C (centres undefined) | 27 nM | 3.2 nM | 64.3 nM | – | 54% | – | – |
| CCN1CCCC(OC(=O)c2cc(Cl)c(N)cc2OC)C1 (centres undefined) | 44 nM | – | 34.5 nM | – | 79% | – | – |
| CCN(CC)CCNC(=O)c1cc(Cl)c(N)cc1OC [METOCLOPRAMIDE] | – | 443 nM | – | – | – | – | – |
| CCN1CCC(OC(=O)c2cc(Cl)c(N)cc2OC)CC1 | 22 nM | 118 nM | 10.3 nM | – | 60% | – | – |

Reference: ChEMBL document CHEMBL1127907, “Design of a potent 5-HT4 receptor agonist with nanomolar affinity” (Bioorg Med Chem Lett, 1994)
